Laboratory results taken from US20210338761A1, “COMPOSITION FOR PREVENTING, AMELIORATING, OR TREATING SLEEP DISTURBANCE COMPRISING EXTRACT OF FRAXINUS SP. PLANT AS EFFECTIVE COMPONENT” (KOREA INSTITUTE OF ORIENTAL MEDICINE, priority 2018, published 2021).

Tests used:
Format in all cases: in vivo, C57BL/6 mouse
Conditions in all cases: 15 mg/kg orally for 14 days, foot pad electric shock and restraint stress, cerebral cortex obtained on Day 17
[1] = tested on: GAD67 (glutamic acid decarboxylase 67) mRNA; experiment: mRNA expression level of GAD67 in cerebral cortex, stress-induced sleep disturbance model (real-time PCR)
Protocol: (§1) 100 mg/kg extract of Fraxinus rhynchophylla and 15 mg/kg doxepin (Sigma-Aldrich, St. Louis, Mo., USA) were dissolved respectively in PBS to the designated concentration. After aliquoting them according to the required administration amount, it was orally administered in an amount of 0.1 ml for each, one hour before applying stress. To the normal and stress control, PBS was orally administered in an amount of 0.1 ml for each.
(§2) Seven-week old male C57BL/6 mouse with bodyweight of 20 to 22 g was obtained from DBL Co., Ltd. (Eumseong-Gun, Chungcheong-Bukdo, Korea). […]
(§3) Expression pattern of the gene in cerebral cortex, which has been removed from each test animal upon the completion of the test, was determined by real-time PCR. The cerebral cortex tissues of a mouse were treated with RNAzolB (Tel-Test) to extract RNA, and then analyzed by cDNA and real-time PCR instrument using One-step SYBR Green PCR kit (AB science). […] Real time quantitative PCR was carried out by using Applied Biosystems 7500 Real-Time PCR system (Applied Biosystems, USA).
(§4) Thereafter, foot pad electric shock and restrain were applied to the mouse and then cerebral cortex was collected by autopsy of the mouse to obtain RNA. cDNA was then prepared and mRNA expression level of GAD65 and GAD67 was analyzed by using real-time gene analyzer.

[2] = tested on: neuropeptide Y mRNA; experiment: mRNA expression level of neuropeptide Y in cerebral cortex, stress-induced sleep disturbance model (real-time PCR)
Protocol: as §1, §2, §3
Thereafter, foot pad electric shock and restrain were applied to the mouse and then cerebral cortex was collected by autopsy of the mouse to obtain RNA. cDNA was then prepared and mRNA expression of neuropeptide Y was analyzed by using real-time gene analyzer.

[3] = tested on: GAD65 (glutamic acid decarboxylase 65) mRNA; experiment: mRNA expression level of GAD65 in cerebral cortex, stress-induced sleep disturbance model (real-time PCR)
Protocol: as §1, §2, §3, §4

CN(C)CCC=C1c2ccccc2COc2ccccc21 [doxepin]
mRNA expression level of GAD67 in cerebral cortex compared to the control [1]: tend to show higher expression
mRNA expression level of neuropeptide Y in cerebral cortex compared to the control [2]: increased in statistically significant sense
mRNA expression level of neuropeptide Y in cerebral cortex compared to the control ([2]; listed as positive control): higher expression in significant sense
mRNA expression level of GAD65 in cerebral cortex compared to the control [3]: tend to show higher expression
